Common to all, as to assay type: cell-based
For one assay, the target named is T1, CFTR-R117H (Homo sapiens, UniProt P13569, R117H).
T1 construct: expressed in transfected cells
As to the kind of experiment: YFP-halide influx assay for the CFTR-R117H. The following applies: CFTR-R117H mutant; read-out: EC50 measured by YFP-halide influx assay for the CFTR-R117H. The source says:
(§1) The YFP halide influx assay measures the functionality of the cystic fibrosis Transmembrane Conductance regulator (CFTR) channels. The assay is used to evaluate the capacity of compounds to increase the channel opening of existing mutant CFTR channels in the membrane. It makes use of the observation that the yellow fluorescent protein (YFP) variant YFP H148Q, I152L, F47L has its fluorescence substantially quenched by halide ions like Cl^− and I^−. (Galietta et al., 2001)
(§2) For this purpose, HEK293-cells are seeded in 96 well plates. During seeding, the cells are reverse-transfected with plasmid vectors that direct the expression of the CFTR G551D mutant and of the YFP reporter. Cells are incubated at 37° C., 5% CO2 for 24 hours so as to allow for sufficient expression of the CFTR protein.
(§3) The I^−-induced quenching of fluorescence is recorded immediately after injection of I^− for 7 seconds. The capacity of a compound to increase the channel opening is directly correlated with the decrease in fluorescence, and is expressed as (1−(fluorescence after 7 seconds (F)/fluorescence before injection (F0))) and an EC50 can be derived from a (1−F/F0) vs compound concentration plot.
(§4) Similar YHA assays were developed for other channel gating defective or channel conductance defective CFTR mutants to determine effect of compound on channel activity. Examples of mutants are G178R, G1349D, S549N, R117H, R334W. This assay is also used for additional class I CFTR mutants, including G542X, W1282X; class II mutants including N1303K, and for class III mutants including S1251N; or wild-type CFTR.

A further assay addresses T2, CFTR-G1349D (Homo sapiens, UniProt P13569, G1349D).
T2 construct: expressed in transfected cells
As to the kind of experiment: YFP-halide influx assay for the CFTR-G1349D. As to conditions: CFTR-G1349D mutant; read-out: EC50 measured by YFP-halide influx assay for the CFTR-G1349D.
Description: as §1, §2, §3, §4

In another assay the target is T3, CFTR-S549N (Homo sapiens, UniProt P13569, S549N).
T3 construct: expressed in transfected cells
Briefly: YFP-halide influx assay for the CFTR-S549N. As to conditions: CFTR-S549N mutant; read-out: EC50 measured by YFP-halide influx assay for the CFTR-S549N.
Description: as §1, §2, §3, §4

The target of a further assay is T4, CFTR-G178R (Homo sapiens, UniProt P13569, G178R).
T4 construct: expressed in transfected cells
As to the kind of experiment: YFP-halide influx assay for the CFTR-G178R. The following applies: read-out: EC50 measured by YFP-halide influx assay for the CFTR-G178R.
Description: as §1, §2, §3, §4

In a further assay the target is T5, CFTR ΔF508 mutant (Homo sapiens, UniProt P13569, DEL508-508).
T5 construct: expressed in transfected cells; host or cells: CFBE41o- (adenoviral transduction)
As to the kind of experiment: YFP-halide influx assay for the CFTR-ΔF508 mutation (384 well, CFBE41o- cells, FDSS/μCell). As to conditions: forskolin 10.67 μM, fluorescence after 36 seconds, read-out: EC50 measured by YFP-halide influx assay for the CFTR-ΔF508. Put shortly:
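CFBE41o- cells were adenovirally transduced with ΔF508 CFTR and the YFP H148Q/I152L reporter. Cells were then held 24 h at 27 °C or treated 24 h at 37 °C with a CFTR modulator. Iodide-induced quench was recorded for 2 min, and EC50 was derived from 1−F/F0 at 36 s against compound concentration.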

A further assay concerns the target T6, CFTR G551D mutant (Homo sapiens, UniProt P13569, G551D).
T6 construct: expressed in transfected cells; host or cells: HEK293 (reverse transfection with plasmids)
As to the kind of experiment: YFP-halide influx assay for the CFTR-G551D mutation (HEK293 cells). As to conditions: HEK293 cells expressing CFTR G551D and YFP reporter; forskolin 10.67 μM; read-out: EC50 measured by YFP-halide influx assay for the CFTR-G551D. In a few lines: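 HEK293 cells reverse-transfected with CFTR G551D and halide-sensitive YFP, expressed 24 h at 37 °C. Iodide-induced fluorescence quench recorded for 7 s after I^− injection; response as 1−F/F0, EC50 from concentration plot.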

T3 sequence (P13569 whole entry S549N): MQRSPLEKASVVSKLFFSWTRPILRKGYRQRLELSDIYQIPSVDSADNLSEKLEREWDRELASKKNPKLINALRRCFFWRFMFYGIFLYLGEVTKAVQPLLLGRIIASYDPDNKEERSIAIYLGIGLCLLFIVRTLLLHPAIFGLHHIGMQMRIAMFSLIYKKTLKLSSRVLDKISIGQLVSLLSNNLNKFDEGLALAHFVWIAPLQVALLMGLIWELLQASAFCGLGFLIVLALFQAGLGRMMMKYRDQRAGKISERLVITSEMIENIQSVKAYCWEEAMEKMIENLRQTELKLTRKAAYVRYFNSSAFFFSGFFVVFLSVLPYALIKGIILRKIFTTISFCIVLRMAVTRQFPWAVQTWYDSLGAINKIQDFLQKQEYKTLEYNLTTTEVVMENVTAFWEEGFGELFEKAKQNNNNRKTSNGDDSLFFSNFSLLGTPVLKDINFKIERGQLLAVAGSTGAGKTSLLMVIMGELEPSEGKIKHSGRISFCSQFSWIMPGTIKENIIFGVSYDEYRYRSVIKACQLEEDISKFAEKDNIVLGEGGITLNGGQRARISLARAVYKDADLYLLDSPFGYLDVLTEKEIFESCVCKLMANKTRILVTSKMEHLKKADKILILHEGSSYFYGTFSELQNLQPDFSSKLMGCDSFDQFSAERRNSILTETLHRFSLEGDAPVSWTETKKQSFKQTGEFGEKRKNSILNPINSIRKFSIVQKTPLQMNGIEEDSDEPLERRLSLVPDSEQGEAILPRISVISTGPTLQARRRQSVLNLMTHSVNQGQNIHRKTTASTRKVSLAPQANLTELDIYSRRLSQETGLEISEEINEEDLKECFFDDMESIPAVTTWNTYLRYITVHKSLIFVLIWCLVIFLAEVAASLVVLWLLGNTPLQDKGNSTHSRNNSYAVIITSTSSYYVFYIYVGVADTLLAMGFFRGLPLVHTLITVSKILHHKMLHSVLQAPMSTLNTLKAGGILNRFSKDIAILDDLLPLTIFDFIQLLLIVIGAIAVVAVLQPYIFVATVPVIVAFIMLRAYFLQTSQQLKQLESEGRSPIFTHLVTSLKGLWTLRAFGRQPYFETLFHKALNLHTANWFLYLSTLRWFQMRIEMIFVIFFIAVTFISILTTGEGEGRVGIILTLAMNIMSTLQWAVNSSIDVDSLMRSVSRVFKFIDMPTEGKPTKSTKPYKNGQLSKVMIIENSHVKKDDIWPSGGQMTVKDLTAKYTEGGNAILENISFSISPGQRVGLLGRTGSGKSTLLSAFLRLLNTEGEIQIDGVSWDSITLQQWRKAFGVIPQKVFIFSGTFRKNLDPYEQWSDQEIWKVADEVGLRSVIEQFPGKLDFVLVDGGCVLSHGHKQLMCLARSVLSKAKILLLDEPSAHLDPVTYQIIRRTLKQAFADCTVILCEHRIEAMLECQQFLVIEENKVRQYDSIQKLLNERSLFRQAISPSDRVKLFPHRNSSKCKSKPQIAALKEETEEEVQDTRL
T1 sequence (P13569 whole entry R117H): as the sequence (P13569 whole entry S549N) above, with R117H, N549S counted along it
T6 sequence (P13569 whole entry G551D): as the sequence (P13569 whole entry S549N) above, with N549S, G551D counted along it
T5 sequence (P13569 with tags, fused parts or gaps DEL508-508): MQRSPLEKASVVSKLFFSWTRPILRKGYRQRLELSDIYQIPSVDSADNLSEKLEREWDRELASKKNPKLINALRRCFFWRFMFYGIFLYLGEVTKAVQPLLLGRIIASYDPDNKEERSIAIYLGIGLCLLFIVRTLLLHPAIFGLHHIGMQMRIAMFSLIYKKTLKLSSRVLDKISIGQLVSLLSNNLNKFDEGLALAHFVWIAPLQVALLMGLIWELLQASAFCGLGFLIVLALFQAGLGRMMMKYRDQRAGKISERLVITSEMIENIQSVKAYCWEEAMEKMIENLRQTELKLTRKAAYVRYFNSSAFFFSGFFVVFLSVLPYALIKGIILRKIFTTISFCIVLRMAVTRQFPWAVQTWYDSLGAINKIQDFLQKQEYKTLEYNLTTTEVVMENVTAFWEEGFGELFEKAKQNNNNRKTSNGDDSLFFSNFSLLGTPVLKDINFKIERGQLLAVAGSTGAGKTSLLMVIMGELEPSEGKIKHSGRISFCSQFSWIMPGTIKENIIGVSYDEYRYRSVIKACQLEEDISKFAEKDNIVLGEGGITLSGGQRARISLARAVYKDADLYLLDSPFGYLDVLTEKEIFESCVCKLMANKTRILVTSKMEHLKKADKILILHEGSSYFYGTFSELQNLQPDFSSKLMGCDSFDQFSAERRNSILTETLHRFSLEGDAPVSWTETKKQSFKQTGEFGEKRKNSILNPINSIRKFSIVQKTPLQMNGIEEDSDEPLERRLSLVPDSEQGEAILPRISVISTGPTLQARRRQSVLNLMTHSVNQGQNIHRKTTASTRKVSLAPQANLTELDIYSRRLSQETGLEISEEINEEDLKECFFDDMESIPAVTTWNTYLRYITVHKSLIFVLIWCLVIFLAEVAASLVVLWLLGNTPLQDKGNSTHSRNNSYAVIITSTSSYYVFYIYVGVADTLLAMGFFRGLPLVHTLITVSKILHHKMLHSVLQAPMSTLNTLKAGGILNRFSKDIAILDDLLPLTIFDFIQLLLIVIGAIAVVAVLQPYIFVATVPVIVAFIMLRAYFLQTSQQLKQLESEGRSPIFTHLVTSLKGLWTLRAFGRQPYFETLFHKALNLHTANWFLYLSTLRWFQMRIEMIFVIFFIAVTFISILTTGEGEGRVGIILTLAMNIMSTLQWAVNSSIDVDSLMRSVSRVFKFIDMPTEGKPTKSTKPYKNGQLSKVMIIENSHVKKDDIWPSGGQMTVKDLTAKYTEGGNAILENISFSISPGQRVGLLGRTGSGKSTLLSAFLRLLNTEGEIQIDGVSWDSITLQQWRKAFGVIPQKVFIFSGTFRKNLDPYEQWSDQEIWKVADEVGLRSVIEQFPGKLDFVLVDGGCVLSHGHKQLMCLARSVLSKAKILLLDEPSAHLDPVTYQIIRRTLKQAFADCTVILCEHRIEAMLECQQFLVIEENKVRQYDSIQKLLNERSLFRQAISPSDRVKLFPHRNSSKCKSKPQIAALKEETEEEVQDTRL
T2 sequence (P13569 whole entry G1349D): as the sequence (P13569 whole entry S549N) above, with N549S, G1349D counted along it
T4 sequence (P13569 whole entry G178R): as the sequence (P13569 whole entry S549N) above, with G178R, N549S counted along it

Regarding `CC(C)C(O)C(=O)Nc1sc2c(c1C(N)=O)CC(C)(C)OC2(C)C` (single isomer, unassigned) [Compound 52, 2-[[2-hydroxy-3-methyl-butanoyl]amino]-5,5,7,7-tetramethyl-4H-thieno[2,3-c]pyran-3-carboxamide], the EC50 (commonly the concentration that produces a half-maximal response) at CFTR-R117H was 11.4 nM; on CFTR-G1349D, 60.9 nM; on CFTR-S549N, 86.5 nM; on CFTR-G178R, 39.7 nM; on CFTR ΔF508 mutant it was 1.97 nM.
For `CC1(C)Cc2c(sc(NC(=O)c3n[nH]cc3C3=CCOCC3)c2C(N)=O)C(C)(C)O1` [Compound 45, N-(3-carbamoyl-5,5,7,7-tetramethyl-4H-thieno[2,3-c]pyran-2-yl)-4-(3,6-dihydro-2H-pyran-4-yl)-1H-pyrazole-3-carboxamide], the EC50 at CFTR-R117H stood at 1200 nM; on CFTR-G1349D it was 325 nM; at CFTR-S549N it was 1520 nM; at CFTR G551D mutant, 1140 nM; at CFTR-G178R, 368 nM; on CFTR ΔF508 mutant it was 29.6 nM.
In the case of `CC(C)CC(O)C(=O)Nc1sc2c(c1C(N)=O)CC(C)(C)OC2(C)C` (centres unmarked) [Compound 46, 2-[(2-hydroxy-4-methyl-pentanoyl)amino]-5,5,7,7-tetramethyl-4H-thieno[2,3-c]pyran-3-carboxamide], the EC50 turned out to be 24.4 nM at CFTR-R117H; 58.4 nM on CFTR-G1349D; 140 nM on CFTR-S549N; 1430 nM at CFTR G551D mutant; 19 nM on CFTR-G178R; 2.84 nM on CFTR ΔF508 mutant.
With `COCc1[nH]nc(C(=O)Nc2sc3c(c2C(N)=O)CC(C)(C)OC3(C)C)c1Cl` [Compound 50, N-(3-carbamoyl-5,5,7,7-tetramethyl-4H-thieno[2,3-c]pyran-2-yl)-4-chloro-5-(methoxymethyl)-1H-pyrazole-3-carboxamide], the EC50 on CFTR-R117H amounted to 76.3 nM; on CFTR-G1349D, 70.5 nM; on CFTR-S549N it was 105 nM; on CFTR G551D mutant it was 288 nM; on CFTR-G178R it was 47.4 nM; at CFTR ΔF508 mutant, 10.6 nM.
As for `COCCOc1cc(C(=O)Nc2sc3c(c2C(N)=O)CC(C)(C)OC3(C)C)n[nH]1` [Compound 55, 5-(2-Methoxy-ethoxy)-1H-pyrazole-3-carboxylic acid (3-carbamoyl-5,5,7,7-tetramethyl-4,7-dihydro-5H-thieno[2,3-c]pyran-2-yl)-amide], the EC50 at CFTR-R117H came to 38.9 nM; on CFTR-G1349D, 74 nM; on CFTR-S549N it was 108 nM; at CFTR G551D mutant, 600 nM; at CFTR-G178R it was 58.3 nM; on CFTR ΔF508 mutant, 24.5 nM.
Turning to `CCCc1c[nH]nc1C(=O)Nc1sc2c(c1C(N)=O)CC(C)(C)OC2(C)C` [Compound 71, N-(3-carbamoyl-5,5,7,7-tetramethyl-4H-thieno[2,3-c]pyran-2-yl)-4-propyl-1H-pyrazole-3-carboxamide], the EC50 on CFTR-R117H was determined as 116 nM; at CFTR-G1349D, 97.7 nM; on CFTR-S549N, 196 nM; at CFTR G551D mutant, 1170 nM; at CFTR-G178R, 89.3 nM; at CFTR ΔF508 mutant, 14.4 nM.
As for `CCOCCc1c[nH]nc1C(=O)Nc1sc2c(c1C(N)=O)CC(C)(C)OC2(C)C` [Compound 72, N-(3-carbamoyl-5,5,7,7-tetramethyl-4H-thieno[2,3-c]pyran-2-yl)-4-(2-ethoxyethyl)-1H-pyrazole-3-carboxamide], the EC50 on CFTR-R117H was 147 nM; on CFTR-G1349D it was 64 nM; on CFTR-S549N, 122 nM; on CFTR G551D mutant it was 368 nM; at CFTR-G178R it was 31.4 nM; on CFTR ΔF508 mutant it was 17.9 nM.
Consider `CC1(C)Cc2c(sc(NC(=O)[C@@H](O)C(C)(C)C)c2C(N)=O)C(C)(C)O1` [Compound 76, 2-[[(2S)-2-hydroxy-3,3-dimethyl-butanoyl]amino]-5,5,7,7-tetramethyl-4H-thieno[2,3-c]pyran-3-carboxamide], for which the 50% effective concentration (EC50) came to 15.3 nM on CFTR-R117H; 24.4 nM on CFTR-G1349D; 31.5 nM on CFTR-S549N; 412 nM at CFTR G551D mutant; 14.1 nM at CFTR-G178R; 2.17 nM at CFTR ΔF508 mutant.
As to `CC1(C)Cc2c(sc(NC(=O)[C@H](O)C(C)(C)C)c2C(N)=O)C(C)(C)O1` [Compound 77, 2-[[(2R)-2-hydroxy-3,3-dimethyl-butanoyl]amino]-5,5,7,7-tetramethyl-4H-thieno[2,3-c]pyran-3-carboxamide], the EC50 at CFTR-R117H stood at 1010 nM; at CFTR-G1349D it was 1310 nM; at CFTR-S549N, 1450 nM; at CFTR G551D mutant it was 7780 nM; at CFTR-G178R it was 2210 nM; on CFTR ΔF508 mutant, 127 nM.
As to `CC1(C)Cc2c(sc(NC(=O)c3ccnn3COP(=O)(O)O)c2C(N)=O)C(C)(C)O1` [Compound 92, [5-[(3-carbamoyl-5,5,7,7-tetramethyl-4H-thieno[2,3-c]pyran-2-yl)carbamoyl]pyrazol-1-yl]methyl dihydrogen phosphate], the EC50 at CFTR-G178R was 82.2 nM.
As for `CC1(C)Cc2c(sc(NC(=O)c3n[nH]cc3C3=COCCO3)c2C(N)=O)C(C)(C)O1` [Compound 94, N-(3-carbamoyl-5,5,7,7-tetramethyl-4H-thieno[2,3-c]pyran-2-yl)-4-(2,3-dihydro-1,4-dioxin-5-yl)-1H-pyrazole-3-carboxamide], the EC50 amounted to 147 nM at CFTR-R117H; 672 nM on CFTR-G1349D; 345 nM at CFTR-S549N; 541 nM at CFTR G551D mutant; 67.6 nM on CFTR-G178R; 30.1 nM on CFTR ΔF508 mutant.
Regarding `CC1(C)Cc2c(sc(NC(=O)c3n[nH]cc3C3COCCO3)c2C(N)=O)C(C)(C)O1` (centres unmarked) [Compound 95, N-(3-carbamoyl-5,5,7,7-tetramethyl-4H-thieno[2,3-c]pyran-2-yl)-4-(1,4-dioxan-2-yl)-1H-pyrazole-3-carboxamide], the EC50 on CFTR-R117H stood at 106 nM; at CFTR-G1349D, 81.4 nM; at CFTR-S549N it was 291 nM; on CFTR G551D mutant it was 1060 nM; at CFTR ΔF508 mutant, 24.5 nM.
For the compound `CC1(C)Cc2c(sc(NC(=O)[C@@H](O)CC3CC3)c2C(N)=O)C(C)(C)O1` [Compound 98, 2-[[(2S)-3-cyclopropyl-2-hydroxy-propanoyl]amino]-5,5,7,7-tetramethyl-4H-thieno[2,3-c]pyran-3-carboxamide], the EC50 on CFTR-R117H amounted to 26.7 nM; at CFTR-G1349D, 54.7 nM; on CFTR-S549N it was 73 nM; at CFTR G551D mutant, 5110 nM; on CFTR-G178R, 41.5 nM; at CFTR ΔF508 mutant, 2.62 nM.
Consider `CC(C)OCCOc1c[nH]nc1C(=O)Nc1sc2c(c1C(N)=O)CC(C)(C)OC2(C)C` [Compound 101, N-(3-carbamoyl-5,5,7,7-tetramethyl-4H-thieno[2,3-c]pyran-2-yl)-4-(2-isopropoxyethoxy)-1H-pyrazole-3-carboxamide], for which the EC50 at CFTR-R117H is 1120 nM; on CFTR-G1349D, 888 nM; at CFTR-S549N it was 947 nM; on CFTR G551D mutant, 1360 nM; at CFTR-G178R, 347 nM; at CFTR ΔF508 mutant it was 26.8 nM.
In the case of `CC(C)(C)CC(O)C(=O)Nc1sc2c(c1C(N)=O)CC(C)(C)OC2(C)C` (centres unmarked) [Compound 106, 2-[(2-hydroxy-4,4-dimethyl-pentanoyl)amino]-5,5,7,7-tetramethyl-4H-thieno[2,3-c]pyran-3-carboxamide], the EC50 at CFTR-R117H came out at 11.7 nM; at CFTR-G1349D, 200 nM; at CFTR-S549N it was 21.8 nM; on CFTR G551D mutant it was 981 nM; at CFTR-G178R it was 26 nM; on CFTR ΔF508 mutant, 0.54 nM.
On to `CC1(C)Cc2c(sc(NC(=O)c3ccn(CC(F)(F)F)n3)c2C(N)=O)C(C)(C)O1` [Compound 121, N-(3-carbamoyl-5,5,7,7-tetramethyl-4H-thieno[2,3-c]pyran-2-yl)-1-(2,2,2-trifluoroethyl)pyrazole-3-carboxamide], for which the EC50 on CFTR-R117H came out at 724 nM; at CFTR-G1349D it was 536 nM; on CFTR-S549N, 599 nM; at CFTR G551D mutant, 1000 nM; at CFTR-G178R, 466 nM; on CFTR ΔF508 mutant, 18.7 nM.

Source of the values: patent US9351955B2, “Compounds and pharmaceutical compositions thereof for the treatment of cystic fibrosis” (Galapagos NV, priority 2013, dated 2016).
